According to US20240082406A1, “BENZOHETEROCYCLE SUBSTITUTED TETRAHYDROISOQUINOLINE COMPOUND” (SHANGHAI JEMINCARE PHARMACEUTICAL CO., LTD, priority 2020, published 2024):

What was measured:
[1] = target: T1, NHE3 (UniProt P48764); assay: Cell-based NHE3 activity under transient conditions (BCECF-AM intracellular pH, FLIPR); design: species or system Rat or Human; conditions: embodiment compounds, opossum kidney cells expressing NHE3, read-out: Cell-based NHE3 inhibition IC50 (uM) under transient conditions
T1 sequence (P48764 1-834): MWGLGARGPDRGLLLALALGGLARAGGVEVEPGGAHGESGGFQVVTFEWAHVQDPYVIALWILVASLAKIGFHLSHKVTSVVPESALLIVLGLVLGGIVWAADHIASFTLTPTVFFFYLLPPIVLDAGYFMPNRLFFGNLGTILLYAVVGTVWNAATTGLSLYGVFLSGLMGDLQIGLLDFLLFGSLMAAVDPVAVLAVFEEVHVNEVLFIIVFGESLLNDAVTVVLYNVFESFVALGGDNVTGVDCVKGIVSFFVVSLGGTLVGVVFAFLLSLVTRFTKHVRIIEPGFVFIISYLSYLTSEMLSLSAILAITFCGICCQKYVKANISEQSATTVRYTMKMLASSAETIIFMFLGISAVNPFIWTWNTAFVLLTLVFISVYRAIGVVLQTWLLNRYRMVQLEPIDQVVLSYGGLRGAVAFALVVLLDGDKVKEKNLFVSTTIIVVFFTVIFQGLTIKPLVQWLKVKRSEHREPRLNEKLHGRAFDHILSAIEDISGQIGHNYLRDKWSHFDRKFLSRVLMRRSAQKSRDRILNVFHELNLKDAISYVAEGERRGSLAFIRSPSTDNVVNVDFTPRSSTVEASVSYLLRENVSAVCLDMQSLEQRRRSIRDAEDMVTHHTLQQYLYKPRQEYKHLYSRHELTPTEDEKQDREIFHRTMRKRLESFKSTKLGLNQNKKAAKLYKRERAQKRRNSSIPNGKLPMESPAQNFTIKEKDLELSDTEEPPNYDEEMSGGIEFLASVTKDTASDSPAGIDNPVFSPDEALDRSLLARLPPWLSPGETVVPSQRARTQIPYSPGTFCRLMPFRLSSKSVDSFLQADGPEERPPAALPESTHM
Text: (§1) Opossum kidney (OK) cells were obtained from ATCC and cultured and expanded according to its instructions. OK monoclonal stable cell lines expressing the Rat NHE3 (Gene Bank registration number: M85300) protein and OK monoclonal stable cell lines expressing the Human NHE3 (Gene Bank registration number: NM_004174.1) protein were constructed by lentivirus infection.
The general procedure of the cell-based NHE3 activity experiments under transient conditions (transient inhibition) was based on an adaptation method of the pH-sensitive dye method originally reported by Tisen (Proc. Natl. Acad. Sci. USA) (1984) 81(23):7436-7440) to measure rat NHE3-mediated Na+-dependent reverse H+ transport, and was optimized according to the instructions “Measuring Intracellular pH With the FLIPR and FLIPR 384 Fluorometric Imaging Plate Reader Systems” published by Molecular Devices. The specific method was: Rat NHE3 OK monoclonal cells or Human NHE3 OK monoclonal cells were inoculated into 384-well plates and grew overnight. The medium was aspirated from the wells and the cells were washed twice with FLIPR buffer (Hank's BSS 1×, 20 mM HEPES, 1% BSA) followed by incubation with FLIPR buffer (Hank's BSS 1×, 20 mM HEPES, 1% BSA) containing […] BCECF-AM (Invitrogen) for 45 min at room temperature. Subsequently, […] of 200 mM NH4Cl-HEPES buffer (Hank's BSS 1×, 20 mM HEPES, 200 mM NH4Cl) was added and the cells were incubated for 15-20 minutes at room temperature. Cells were washed twice with 20 mM NH4Cl-HEPES buffer (Hank's BSS 1×, 20 mM HEPES, 20 mM NH4Cl). NHE3-mediated pH sensitization in cells was normalized by addition of containing 0.4 mM amiloride (EIPA) and […] test compound or Na-HEPES buffer (100 mM NaCl, 50 mM HEPES, 10 mM glucose, 5 mM KCl, 2 mM CaCl2), 1 mM MgCl2, pH 7.4) and monitoring of BCECF-AM fluorescence at λem 535 nm excitated by λex 440 nm and λex 490 nm respectively. Ratio=fluorescence value (λex 490 nm)/fluorescence value (λex 440 nm) was set, the average value of the Ratio difference between the end time and the start time between the duplicate wells was calculated, the average value and the concentration value of the compound were drawn, and Graphpad Prism software was used to estimate IC50 value.

[2] = target: T1, NHE3; assay: Cell-based NHE3 activity under persistent conditions (60 min pre-incubation, compound removed); design: species or system Rat or Human; conditions: opossum kidney cells expressing NHE3, read-out: Cell-based NHE3 inhibition IC50 (uM) under persistent conditions
Text: as §1
The general procedure of the cell-based NHE3 activity assay under persistent conditions (persistent inhibition) was: Rat NHE3 OK monoclonal cells or Human NHE3 OK monoclonal cells were inoculated into 384-well plates and grew overnight. The medium was aspirated from the wells and the cells were washed twice with FLIPR buffer (Hank's BSS 1×, 20 mM HEPES, 1% BSA) followed by the addition of Na-HEPES buffer containing […] test compound (100 mM NaCl, 50 mM HEPES, 10 mM glucose, 5 mM KCl, 2 mM CaCl2, 1 mM MgCl2, pH 7.4) and incubated for 60 minutes at room temperature. The compounds were aspirated from the wells and incubated with FLIPR buffer (Hank's BSS 1×, 20 mM HEPES, 1% BSA) containing […] BCECF-AM (Invitrogen) for 45 minutes at room temperature. Subsequently, […] of 200 mM NH4Cl-HEPES buffer (Hank's BSS 1×, 20 mM HEPES, 200 mM NH4Cl) was added and incubated for 15-20 minutes at room temperature. The cells were washed twice with 20 mM NH4Cl-HEPES buffer (Hank's BSS 1×, 20 mM HEPES, 20 mM […]). […] Ratio=fluorescence value (λex 490 nm)/fluorescence value (λex 440 nm) was set, the average value of the Ratio difference between the end time and the start time between the duplicate wells was calculated, the average value and the concentration value of the compound were drawn, and the dose-response-inhibition (four parameters) equation was used to estimate EC50 value by GraphpadPrism.

Row | Compound | IC50 [1] [µM] | IC50 [2] [µM]
1 | CN1Cc2c(Cl)cc(Cl)cc2C(c2ccc3c(c2)C(=O)N(CCOCCOCCOCCNC(=O)COCC(=O)NCCOCCOCCOCCN2Cc4ccc(C5CN(C)Cc6c(Cl)cc(Cl)cc65)cc4C2=O)C3)C1 (stereo not drawn) [Embodiment J1] | 0.43 | 0.03
2 | CN1Cc2c(Cl)cc(Cl)cc2C(c2ccc3c(c2)C(=O)N(CCOCCOCCOCCNC(=O)[C@H](O)[C@@H](O)C(=O)NCCOCCOCCOCCN2Cc4ccc(C5CN(C)Cc6c(Cl)cc(Cl)cc65)cc4C2=O)C3)C1 (stereo partly drawn) [Embodiment J2] | 0.32 | 0.05
3 | CN1Cc2c(Cl)cc(Cl)cc2[C@H](c2cccc(S(=O)(=O)NCCOCCOCCNC(=O)NCCCCNC(=O)NCCOCCOCCNS(=O)(=O)c3cccc([C@@H]4CN(C)Cc5c(Cl)cc(Cl)cc54)c3)c2)C1 [Tenapanor, reference compound] | 0.74 | 0.56

Now those with a lower IC50 [1], led by results:

Row | IC50 [1] [µM] | IC50 [2] [µM] | Compound
4 | 0.26 | 0.08 | CN1Cc2c(Cl)cc(Cl)cc2C(c2ccc3c(c2)C(=O)N(CCOCCOCCOCCNC(=O)[C@@H](O)[C@@H](O)C(=O)NCCOCCOCCOCCN2Cc4ccc(C5CN(C)Cc6c(Cl)cc(Cl)cc65)cc4C2=O)C3)C1 (stereo partly drawn) [Embodiment J3]
5 | 0.25 | 0.05 | CN1Cc2c(Cl)cc(Cl)cc2C(c2ccc3c(c2)C(=O)N(CCOCCOCCNC(=O)[C@H](O)[C@H](O)[C@@H](O)[C@@H](O)C(=O)NCCOCCOCCN2Cc4ccc(C5CN(C)Cc6c(Cl)cc(Cl)cc65)cc4C2=O)C3)C1 (stereo partly drawn) [Embodiment J4]
6 | 0.19 | 0.13 | CN1Cc2c(Cl)cc(Cl)cc2C(c2ccc3c(c2)C(=O)N(CCOCCOCCOCCNC(=O)CCC(N)(CCC(=O)NCCOCCOCCOCCN2Cc4ccc(C5CN(C)Cc6c(Cl)cc(Cl)cc65)cc4C2=O)CCC(=O)NCCOCCOCCOCCN2Cc4ccc(C5CN(C)Cc6c(Cl)cc(Cl)cc65)cc4C2=O)C3)C1 (stereo not drawn) [Embodiment I3]
